# US20200316051A1, “TLR7/8 ANTAGONISTS AND USES THEREOF” (Merck Patent GmbH, priority 2017, published 2020)
# How the values were obtained:
# [1] = tested on: TLR7/8; assay: Activation of human PBMCs by LL37 alone or in complex with GU trimer or let-7c miRNA, with or without TLR7/8 inhibitor; type: cell-based
# Description: Binding of LL37 to miRNA enables delivery of miRNA to human PBMCs and stimulate TLR7/8-mediated production of cytokines. Human recombinant LL37 protein was used alone, or in a complex with GU trimer or let-7c miRNA to activate human PBMCs in the presence or absence of TLR7/8 inhibitor (Compound 467 in Table 1 above). Levels of IL-6 (FIG. 5) and IFNα (FIG. 6) were measured following overnight incubation.
# [2] = tested on: TLR7/8; assay: Cytokine production in human PBMCs stimulated with TLR7 agonist, let7c miRNA or let7/DOTAP in the presence of TLR7/8 antagonist; type: cell-based
# Description: Human PBMCs were treated with TLR7 agonist (TLR7), let7c miRNA or transfected with let7c miRNA (let7/DOTAP) in the presence of TLR7/8 antagonist (Compound 467 in Table 1 above). Levels of IL-6 (FIG. 3) and IFNα (FIG. 4) were measured following overnight incubation.
smiles,measurement,setting,value
C[C@@H]1CN(c2ccc(C#N)c3nccnc23)C[C@H](CN2CCC(N3CCOCC3)CC2)O1 [Compound 467],"TLR7/8 activation by LL37-RNA complexes, levels of IL-6",[1]; overnight incubation (FIG. 5),the activation is suppressed
same,"TLR7/8 activation by LL37-RNA complexes, levels of IFNα",[1]; overnight incubation (FIG. 6),the activation is suppressed
same,levels of IL-6 induced by let-7 miRNA,[2]; overnight incubation (FIG. 3),blocks production of cytokines
same,levels of IFNα induced by let-7 miRNA,[2]; overnight incubation (FIG. 4),blocks production of cytokines
